{"source": "patent US8557800B2", "about": "“Sphingosine kinase inhibitors” (Apogee Biotechnology Corporation, priority 2005, dated 2013)", "key": {"[1]": {"test_system": "recombinant human SK", "experiment": "Inhibition of recombinant human SK, LC/MS/MS assay", "type": "biochemical", "conditions": "6 μg/ml compound", "in_short": "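Enzyme incubated with unlabeled sphingosine and ATP (1 mM, as in the radiometric format) for 30 min, then stopped and extracted with acetonitrile. S1P quantified by C8 reverse-phase HPLC–MS/MS against C17 sphingosine and C17 S1P internal standards using calibration curves.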"}, "[2]": {"test_system": "HT-29 (colon)", "experiment": "Human tumor cell line panel, sulforhodamine B", "type": "cell-based", "conditions": "48 hours, mean ± sd"}, "[3]": {"test_system": "VCAM-1", "experiment": "TNFα-induced adhesion molecule expression, Western analysis", "type": "cell-based", "conditions": "human endothelial cells, TNFα 100 ng/mL 6 hours, 25 μM compound", "experimental": "(§1) Like endothelial cells in the body, HUVECs will proliferate in response to several growth factors, and will respond to inflammatory cytokines such as TNFα and IL-1β. Western analyses were conducted with human endothelial cells to evaluate the effects of the SK inhibitors on signaling proteins known to be regulated by TNFα. In these experiments, the cells were serum-starved for 24 hours and then exposed to TNFα (100 ng/mL) for 6 hours. Cell lysates from treated cells were assayed for the adhesion molecules ICAM-1 and VCAM-1. TNFα caused marked increases in the expression levels of adhesion proteins involved in leukocyte recruitment, including ICAM-1 and VCAM-1."}, "[4]": {"test_system": "ICAM-1", "experiment": "TNFα-induced adhesion molecule expression, Western analysis", "type": "cell-based", "conditions": "human endothelial cells, TNFα 100 ng/mL 6 hours, 25 μM compound", "experimental": "as §1"}}}
{"smiles": "O=C(NCc1ccncc1)C12CC3CC(C1)CC(c1ccc(Cl)cc1)(C3)C2", "note": "[Compound 62, 3-(4-Chloro-phenyl)-adamantane-1-carboxylic acid (pyridin-4-ylmethyl)-amide]", "values": [{"measurement": "Recombinant SK (% inhibition)", "setting": "[1]", "result": 13, "unit": "%"}, {"measurement": "IC50", "setting": "[2]", "result": "48.1 ± 7.6", "unit": "µM"}, {"measurement": "TNFα induction of VCAM-1", "setting": "[3]", "result": "completely abrogated"}, {"measurement": "TNFα induction of ICAM-1", "setting": "[4]", "result": "completely abrogated"}]}
